According to patent US20070249670A1, “Glycogen Phosphorylase Inhibitor Compounds and Pharmaceutical Compositions Thereof” (SMITHKLINE BEECHAM CORPORATION, priority 2004, published 2007):

Target: T1, human liver glycogen phosphorylase a (HLGPa) (Homo sapiens, UniProt P06737)
T1 construct: creating a full-length cDNA fused at the 5′ end to codons for methionine-glycine-alanine-histidine; 6xHis tag (leader Met-Gly-Ala-His6-Gly-Gly) (N); made in house; host or cells: E. coli (bacterial expression plasmid pTXK1007LTev)
T1 sequence (P06737 2-847 limits assumed): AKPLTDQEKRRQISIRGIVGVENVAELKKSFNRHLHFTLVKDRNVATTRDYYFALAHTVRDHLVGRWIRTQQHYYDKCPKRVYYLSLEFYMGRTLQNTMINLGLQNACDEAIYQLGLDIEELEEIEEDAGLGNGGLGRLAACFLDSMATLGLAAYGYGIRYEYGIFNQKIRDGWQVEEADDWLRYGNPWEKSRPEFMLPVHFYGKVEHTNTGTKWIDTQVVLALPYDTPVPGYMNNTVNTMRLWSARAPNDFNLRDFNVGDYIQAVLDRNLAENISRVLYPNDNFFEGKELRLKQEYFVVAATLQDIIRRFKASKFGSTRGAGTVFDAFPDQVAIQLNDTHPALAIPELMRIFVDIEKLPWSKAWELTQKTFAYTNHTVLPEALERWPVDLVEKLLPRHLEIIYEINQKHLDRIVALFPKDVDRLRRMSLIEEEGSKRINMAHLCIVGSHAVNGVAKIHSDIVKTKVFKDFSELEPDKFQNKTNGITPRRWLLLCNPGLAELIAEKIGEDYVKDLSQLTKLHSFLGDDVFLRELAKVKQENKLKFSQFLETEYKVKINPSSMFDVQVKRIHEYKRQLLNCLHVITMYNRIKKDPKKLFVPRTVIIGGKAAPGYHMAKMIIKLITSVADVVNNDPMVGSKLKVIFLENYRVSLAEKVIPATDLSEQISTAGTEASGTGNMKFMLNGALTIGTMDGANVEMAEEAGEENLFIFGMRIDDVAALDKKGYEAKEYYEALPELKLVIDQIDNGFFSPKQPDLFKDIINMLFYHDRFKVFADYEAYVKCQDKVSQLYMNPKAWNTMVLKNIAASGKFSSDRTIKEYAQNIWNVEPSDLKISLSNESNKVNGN
Assay: Human liver glycogen phosphorylase a enzymatic activity assay (coupled, fluorescent resorufin readout, with and without 10 mM glucose)
Format: biochemical

[1] = human liver glycogen phosphorylase a, table does not say whether with or without 10 mM glucose
[2] = human liver glycogen phosphorylase a enzymatic activity assay

| IC50 [1] [nM] | IC50 [2] [nM] | SMILES |
| --- | --- | --- |
| 540 |  | Cc1cc(C)c(NC(=O)Nc2cc3ccccc3cc2C(=O)NC2(C(=O)O)CCC(=NO)CC2)c(C)c1 (stereo not shown) [Example 296, 4-(hydroxyimino)-1-({[3-({[(2,4,6-trimethylphenyl)amino]carbonyl}amino)-2-naphthalenyl]carbonyl}amino)cyclohexanecarboxylic acid] |
| 1 |  | COc1ccc(-c2ccc(C(=O)NC3(C(=O)O)CCCCCCC3)c(NC(=O)Nc3c(C)cc(C)cc3C)c2)cc1 [Example 231, 1-({[4′-(Methyloxy)-3-({[(2,4,6-trimethylphenyl)amino]carbonyl}amino)-4-biphenylyl]carbonyl}amino)cyclooctanecarboxylic acid] |
|  | 509 | Cc1cccc(C)c1NC(=O)Nc1cc2ccccc2cc1C(=O)NCCC(=O)O [Example 163, N-[3-({[(2,6-dimethylphenyl)amino]carbonyl}amino)-2-naphthoyl]-beta-alanine] |
|  | 110 | Cc1cc(C)c(NC(=O)Nc2cc3ccccc3cc2C(=O)Nc2cc(C(=O)O)cc(C(=O)O)c2)c(C)c1 [Example 498, 5-({[3-({[(2,4,6-trimethylphenyl)amino]carbonyl}amino)-2-naphthalenyl]carbonyl}amino)-1,3-benzenedicarboxylic acid] |
| 5080 |  | Cc1cc(C)c(NC(=O)Nc2cc3ccccc3cc2C(=O)N[C@@H](CC(=O)OC(C)(C)C)C(=O)OC(C)(C)C)c(C)c1 [Example 353, bis(1,1-dimethylethyl) N-{[3-({[(2,4,6-trimethylphenyl)amino]carbonyl}amino)-2-naphthalenyl]carbonyl}-L-aspartate] |
| 9 |  | Cc1cc(C)c(NC(=O)Nc2cc(-c3ccc(CN4CCOCC4)cc3)ccc2C(=O)N[C@H](C(=O)O)C2CCCCC2)c(C)c1 [Example 217, (2S)-cyclohexyl({[4′-(4-morpholinylmethyl)-3-({[(2,4,6-trimethylphenyl)amino]carbonyl}amino)-4-biphenylyl]carbonyl}amino)ethanoic acid] |
| 530 |  | Cc1cc(C)c(NC(=O)Nc2cc(F)ccc2C(=O)N[C@H](C(=O)O)[C@@H](C)OC(C)(C)C)c(C)c1 [Example 226, O-(1,1-Dimethylethyl)-N-{[4-fluoro-2-({[(2,4,6-trimethylphenyl)amino]carbonyl}amino)phenyl]carbonyl}-L-threonine] |
|  | 1040 | Cc1cccc(C(C)C)c1NC(=O)Nc1cc2ccccc2cc1C(=O)NC(C(=O)O)c1ccccc1 (stereo not shown) [Example 104, {[3-({[(2-isopropyl-6-methylphenyl)amino]carbonyl}amino)-2-naphthoyl]amino}(phenyl)acetic acid] |
|  | 1710 | Cc1cccc(Cl)c1NC(=O)Nc1cc2ccccc2cc1C(=O)N[C@H](C(=O)O)C(C)C [Example 36, N-[3-({[(2-chloro-6-methylphenyl)amino]carbonyl}amino)-2-naphthoyl]-L-valine] |
| 150 |  | O=C(Nc1cc2ccccc2nc1C(=O)N[C@H](C(=O)O)C1CCCCC1)Nc1c(Cl)cccc1Cl [Example 298, (2S)-Cyclohexyl({[3-({[(2,6-dichlorophenyl)amino]carbonyl}amino)-2-quinolinyl]carbonyl}amino)ethanoic acid] |
|  | 170 | O=C(Nc1sc(-c2ccc(Cl)cc2)nc1C(=O)N[C@H](C(=O)O)C1CCCCC1)Nc1c(Cl)cc(Cl)cc1Cl [Example 490, (2S)-({[2-(4-Chlorophenyl)-5-({[(2,4,6-trichlorophenyl)amino]carbonyl}amino)-1,3-thiazol-4-yl]carbonyl}amino)(cyclohexyl)ethanoic acid] |
|  | 770 | Cc1cccc(C)c1NC(=O)Nc1cc(Cl)ccc1C(=O)N[C@@H](CC(=O)O)C(=O)O [Example 174, N-{[4-Chloro-2-({[(2,6-dimethylphenyl)amino]carbonyl}amino)phenyl]carbonyl}-L-aspartic acid] |
|  | 24500 | Cc1cccc(Cl)c1NC(=O)Nc1ccccc1C(=O)N[C@@H](CC(=O)O)C(=O)O [Example 87, N-[2-({[(2-chloro-6-methylphenyl)amino]carbonyl}amino)benzoyl]-L-aspartic acid] |
|  | 5 | Cc1cc(CC2CC2)cc(C)c1NC(=O)Nc1cc(F)ccc1C(=O)N[C@H](C(=O)O)C1CCCCC1 [Example 482, (2S)-cyclohexyl[({2-[({[4-(cyclopropylmethyl)-2,6-dimethylphenyl]amino}carbonyl)amino]-4-fluorophenyl}carbonyl)amino]ethanoic acid] |
|  | 1510 | Cc1cccc(Cl)c1NC(=O)Nc1sc2ccccc2c1C(=O)N[C@H](C(=O)O)C1CCCCC1 [Example 142, (2S)-({[2-({[(2-chloro-6-methylphenyl)amino]carbonyl}amino)-1-benzothien-3-yl]carbonyl}amino)(cyclohexyl)acetic acid] |
|  | 2000 | Cc1cccc(C)c1NC(=O)Nc1cc2ccccc2cc1C(=O)N[C@@H](CO)C(=O)O [Example 19, N-[3-({[(2,6-dimethylphenyl)amino]carbonyl}amino)-2-naphthoyl]-L-serine] |
|  | 15500 | Cc1ccccc1NC(=O)Nc1cc2ccccc2cc1C(=O)N[C@@H](C)C(=O)O [Example 13, N-[3-({[(2-methylphenyl)amino]carbonyl}amino)-2-naphthoyl]-L-alanine] |
| 1280 |  | O=C(O)C[C@H](NC(=O)c1ccc(F)cc1NC(=O)Nc1c(Cl)cccc1Cl)C(=O)O [Example 364, N-{[2-({[(2,6-dichlorophenyl)amino]carbonyl}amino)-4-fluorophenyl]carbonyl}-L-aspartic acid] |
|  | 5970 | CC[C@H](C)[C@H](NC(=O)c1cc(F)c(F)cc1NC(=O)Nc1c(C)cccc1Cl)C(=O)O [Example 70, N-[2-({[(2-chloro-6-methylphenyl)amino]carbonyl}amino)-4,5-difluorobenzoyl]-L-isoleucine] |
|  | 104 | Cc1cc(C)c(NC(=O)Nc2cc(-c3ccc(F)c(F)c3)sc2C(=O)NC2(C(=O)O)CCCCC2)c(C)c1 [Example 534, 1-({[5-(3,4-difluorophenyl)-3-({[(2,4,6-trimethylphenyl)amino]carbonyl}amino)-2-thienyl]carbonyl}amino)cyclohexanecarboxylic acid] |
| 96 |  | CNC(=O)Nc1ccc(C(=O)N[C@H](C(=O)O)C2CCCCC2)c(NC(=O)Nc2c(C)cc(C)cc2C)c1 [Example 206] |
|  | 17400 | Cc1cccc(Cl)c1NC(=O)Nc1ccc(I)cc1C(=O)N[C@@H](CC(=O)O)C(=O)O [Example 89, N-[2-({[(2-chloro-6-methylphenyl)amino]carbonyl}amino)-5-iodobenzoyl]-L-aspartic acid] |
| 15600 |  | COC(=O)[C@@H](NC(=O)c1cc(C)sc1NC(=O)Nc1c(Cl)cccc1Cl)C1CCCCC1 [Example 389, methyl(2S)-cyclohexyl({[2-({[(2,6-dichlorophenyl)amino]carbonyl}amino)-5-methyl-3-thienyl]carbonyl}amino)ethanoate] |
|  | 680 | Cc1cccc(C)c1NC(=O)Nc1cc2ccccc2cc1C(=O)N[C@@H](Cc1ccccc1)C(=O)O [Example 51, N-[3-({[(2,6-dimethylphenyl)amino]carbonyl}amino)-2-naphthoyl]-L-phenylalanine] |
|  | 90 | Cc1cccc(C)c1NC(=O)Nc1cc2ccccc2cc1C(=O)NCC(=O)O [Example 11, N-[3-({[(2,6-dimethylphenyl)amino]carbonyl}amino)-2-naphthoyl]glycine] |
